Measured values reported in patent publication US20240316079A1, “USE OF AKR1C3-ACTIVATED COMPOUND” (OBI PHARMA, INC., priority 2021, published 2024).
Read-outs that look alike come from different tables or passages of the source.

Assays:
PA1280 PDX = assay: Pancreatic cancer PDX model PA1280; type: in vivo, mice
Experimental: (§1) Anti-tumor activity of 3424 in PDX models was assessed at CrownBio Bioscience (Beijing, China) Inc. using female BALB/c nude mice (6-7 weeks old, Beijing Anikeeper Biotech Co., Ltd, Beijing, China). Tumor fragments (PA1280, GA6201, LU2057 and LU2505) from stock mice inoculated with selected primary human cancer tissues (pancreatic, gastric cancer, and lung) were harvested and used for inoculation into BALB/c nude mice. Each mouse was inoculated subcutaneously for tumor development. Mice were allocated randomly into experimental groups when the average tumor size reached ˜100 mm^3) by using StudyDirector™ Ver 3.1.399.19 (Studylog Systems, Inc., S. San Francisco, CA, USA). Prodrug 3424 was administered IV at the indicated doses with a regimen of Q7D×3. Each group consisted of 5-6 mice. The grouping day was denoted as Day 0. Prodrug 3424 was administrated to the tumor-bearing mice from Day 0 through Days as indicated for each study.

CAL12T = assay: In vitro proliferation assay, NSCLC cell line CAL12T; type: cell-based; details: Homo sapiens, CAL-12T, 72 hours of drug exposure, read-out: 3424 IC50
Experimental: (§2) IC50 was calculated as described above.

LU2057 PDX = assay: Lung cancer PDX model LU2057 (low AKR1C3); type: in vivo, mice
Experimental: as §1

[1] = test system: H460 subcutaneous xenograft; type: in vivo, mice; details: 1 week off, Q7D × 2
Experimental: (§3) In vivo anti-tumor activity of 3424 was evaluated using GFP-expressing cancer cell lines in an orthotopic liver cancer model (HepG2) and a subcutaneous lung cancer model (H460) CDX models at AntiCancer, Inc (Beijing, China). Female athymic nude mice (6 weeks; BALB/c-nu, Beijing HFK Bioscience Co., Ltd., Beijing, China) were used in the studies. Each mouse was implanted with a HepG2-GFP tumor chunk (˜1 mm^3 in diameter) in the right lobe of the liver for tumor development or inoculated subcutaneously with H460-GFP tumor chunk (˜1 mm^3 in diameter). About 3-10 days later, whole mouse body scan was performed using FluorVivo Model-100 fluorescence imager (INDEC Biosystems, Inc., Los Altos, CA). Mice with similar fluorescent areas were selected and randomly grouped. Both cell lines expressed high level of AKR1C3. Prodrug 3424 was dosed intravenously (IV) at 1.25, 2.5 mg/kg or 5 mg/kg Q7D×2 for the HepG2 orthotopic model or at 0.625, 1.25 or 2.5 mg/kg for the H460 xenograft model with a regimen of Q7D×2, 1 week off, then Q7D×2 again. Sorafenib was used as the positive control in the HepG2 model and was dosed orally at 30 mg/kg with a regimen of QD×5×7 cycles. Taxol was used as the positive control in the H460 model and was administered at 15 mg/kg IV with a regimen of BIW×4. During the experiments, mice were observed daily and body weight was measured twice a week. Tumor burden was monitored twice a week either by caliper measurement (H460) or FluorVivo fluorescence imager (H460-GFP and HepG2-GFP).

[2] = test system: HepG2 orthotopic xenograft; type: in vivo, mice; details: for TGI: Day 34
Experimental: as §3

NCI-H2228 = assay: In vitro proliferation assay, NSCLC cell line NCI-H2228; type: cell-based, human
Experimental: as §2

Structure (SMILES): C[C@H](OP(=O)(N1CC1)N1CC1)c1ccc([N+](=O)[O-])c(Oc2cccc(C(=O)N(C)C)c2)c1 [Compound 3424, (S)-1-(3-(3-N,N-dimethylaminocarbonyl)phenoxyl-4-mtrophenyl)-1-ethyl-N,N′-bis(ethylene)phosphoramidate]
- TGI (PA1280 PDX; 3424 2.5 mg/kg i.v. Q7D × 3): 77.4%
- tolerability / body weight loss (PA1280 PDX; PA1280, all tested doses): no body weight loss
- IC50 (CAL12T): 29.1 nM
- TGI (LU2057 PDX; 3424 2.5 mg/kg i.v. Q7D × 3): −20.9%
- tolerability / body weight loss (LU2057 PDX; LU2057, all tested doses): no body weight loss
- TGI ([1]; 3424 0.625 mg/kg i.v. Q7D × 2): 60.2%
- TGI ([1]; 3424 1.25 mg/kg i.v. Q7D × 2): 67.2%
- TGI ([1]; 3424 2.5 mg/kg i.v. Q7D × 2, 2.5 mg/kg): 88%
- TGI ([2]; 3424 1.25 mg/kg i.v. Q7D × 2): 52.4%
- complete regression rate ([2]; 3424 2.5 mg/kg i.v. Q7D × 2): 80%
- TGI ([2]; 3424 2.5 mg/kg i.v. Q7D × 2): 91.5%
- complete regression rate ([2]; 3424 5 mg/kg i.v. Q7D × 2): 100%
- TGI ([2]; 3424 5 mg/kg i.v. Q7D × 2): 101.2%
- body weight loss ([2]; mouse, in vivo): no body weight loss
- IC50 (NCI-H2228; Homo sapiens, NCI-H2228, 72 hours of drug exposure, read-out: 3424 IC50): 0.21 nM
- enhanced cytotoxicity in line expressing high AKR1C3 versus low/no AKR1C3 (NCI-H2228; NCI-H2228 NSCLC line): up to 5000 fold
